{"source": "PubChem BioAssay AID1845212", "about": "(Molecular Pharmacology Branch, DTP, NCI, 2023)", "tested_on": "NCI-H719 tumor spheroids, viability", "experiment": "Anticancer human tumor NCI-H719 cell line growth inhibition;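 as to all read-outs here: spheroids exposed to compounds for seven days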;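 as to viability, T/C: percent viability relative to DMSO vehicle control as 100%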", "conditions": "spheroids with HUVEC and MSC; for IC50: curve of first compound; for viability, T/C: stronger effect = lower value", "summary_of_the_method": "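Single agents and combinations were tested on spheroids built from tumor cells plus HUVEC and hMSC, at half-log dilutions starting at or near clinical Cmax, else 10 microM; final DMSO 0.25% (v/v).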"}
{"smiles": "O=C(c1cc(Cc2n[nH]c(=O)c3ccccc23)ccc1F)N1CCN(C(=O)C2CC2)CC1", "note": "+ Cn1nnc2c(C(N)=O)ncn2c1=O", "values": [{"measurement": "IC50", "setting": "second compound 1 µM", "result": 1.72, "unit": "µM"}, {"measurement": "IC50", "setting": "second compound 3.16 µM", "result": 1.36, "unit": "µM"}, {"measurement": "IC50", "setting": "second compound 10 µM", "result": 1.95, "unit": "µM"}, {"measurement": "IC50", "setting": "second compound 31.6 µM", "result": "< 0.0949", "unit": "µM"}, {"measurement": "IC50", "setting": "second compound 100 µM", "result": "< 0.0949", "unit": "µM"}, {"measurement": "viability, T/C", "setting": "second compound 1 µM, first compound 0.0949 µM", "result": 73.7, "unit": "%"}, {"measurement": "viability, T/C", "setting": "second compound 1 µM, first compound 0.3 µM", "result": 56, "unit": "%"}, {"measurement": "viability, T/C", "setting": "second compound 1 µM, first compound 0.949 µM", "result": 56.1, "unit": "%"}, {"measurement": "viability, T/C", "setting": "second compound 1 µM, first compound 3 µM", "result": 42.1, "unit": "%"}, {"measurement": "viability, T/C", "setting": "second compound 1 µM, first compound 9.49 µM", "result": 7.25, "unit": "%"}, {"measurement": "viability, T/C", "setting": "second compound 1 µM, first compound 30 µM", "result": 6.89, "unit": "%"}, {"measurement": "viability, T/C", "setting": "second compound 3.16 µM, first compound 0.0949 µM", "result": 64.2, "unit": "%"}, {"measurement": "viability, T/C", "setting": "second compound 3.16 µM, first compound 0.3 µM", "result": 60.5, "unit": "%"}, {"measurement": "viability, T/C", "setting": "second compound 3.16 µM, first compound 0.949 µM", "result": 67, "unit": "%"}, {"measurement": "viability, T/C", "setting": "second compound 3.16 µM, first compound 3 µM", "result": 19.5, "unit": "%"}, {"measurement": "viability, T/C", "setting": "second compound 3.16 µM, first compound 9.49 µM", "result": 20.2, "unit": "%"}, {"measurement": "viability, T/C", "setting": "second compound 3.16 µM, first compound 30 µM", "result": 7.9, "unit": "%"}, {"measurement": "viability, T/C", "setting": "second compound 10 µM, first compound 0.0949 µM", "result": 55.8, "unit": "%"}, {"measurement": "viability, T/C", "setting": "second compound 10 µM, first compound 0.3 µM", "result": 66.7, "unit": "%"}, {"measurement": "viability, T/C", "setting": "second compound 10 µM, first compound 0.949 µM", "result": 56, "unit": "%"}, {"measurement": "viability, T/C", "setting": "second compound 10 µM, first compound 3 µM", "result": 43.9, "unit": "%"}, {"measurement": "viability, T/C", "setting": "second compound 10 µM, first compound 9.49 µM", "result": 29.8, "unit": "%"}, {"measurement": "viability, T/C", "setting": "second compound 10 µM, first compound 30 µM", "result": 7.79, "unit": "%"}, {"measurement": "viability, T/C", "setting": "second compound 31.6 µM, first compound 0.0949 µM", "result": 52.4, "unit": "%"}, {"measurement": "viability, T/C", "setting": "second compound 31.6 µM, first compound 0.3 µM", "result": 53.3, "unit": "%"}, {"measurement": "viability, T/C", "setting": "second compound 31.6 µM, first compound 0.949 µM", "result": 34.1, "unit": "%"}, {"measurement": "viability, T/C", "setting": "second compound 31.6 µM, first compound 3 µM", "result": 40.7, "unit": "%"}, {"measurement": "viability, T/C", "setting": "second compound 31.6 µM, first compound 9.49 µM", "result": 42.8, "unit": "%"}, {"measurement": "viability, T/C", "setting": "second compound 31.6 µM, first compound 30 µM", "result": 6.8, "unit": "%"}, {"measurement": "viability, T/C", "setting": "second compound 100 µM, first compound 0.0949 µM", "result": 43.5, "unit": "%"}, {"measurement": "viability, T/C", "setting": "second compound 100 µM, first compound 0.3 µM", "result": 21.9, "unit": "%"}, {"measurement": "viability, T/C", "setting": "second compound 100 µM, first compound 0.949 µM", "result": 29.4, "unit": "%"}, {"measurement": "viability, T/C", "setting": "second compound 100 µM, first compound 3 µM", "result": 51.8, "unit": "%"}, {"measurement": "viability, T/C", "setting": "second compound 100 µM, first compound 9.49 µM", "result": 7.29, "unit": "%"}, {"measurement": "viability, T/C", "setting": "second compound 100 µM, first compound 30 µM", "result": 7.19, "unit": "%"}]}
{"smiles": "Cn1ncnc1[C@H]1c2n[nH]c(=O)c3cc(F)cc(c23)N[C@@H]1c1ccc(F)cc1", "note": "+ COc1cc2c(cc1O)CCNC21CSC2c3c(OC(C)=O)c(C)c4c(c3C(COC1=O)N1C(O)C3Cc5cc(C)c(OC)c(O)c5C(C21)N3C)OCO4", "values": [{"measurement": "IC50", "setting": "second compound 30 pM", "result": "< 0.00949", "unit": "µM"}, {"measurement": "IC50", "setting": "second compound 94.9 pM", "result": "< 0.00949", "unit": "µM"}, {"measurement": "IC50", "setting": "second compound 0.0003 µM", "result": "< 0.00949", "unit": "µM"}, {"measurement": "IC50", "setting": "second compound 0.000949 µM", "result": "< 0.00949", "unit": "µM"}, {"measurement": "IC50", "setting": "second compound 0.003 µM", "result": "< 0.00949", "unit": "µM"}, {"measurement": "viability, T/C", "setting": "second compound 30 pM, first compound 0.00949 µM", "result": 13.1, "unit": "%"}, {"measurement": "viability, T/C", "setting": "second compound 30 pM, first compound 0.03 µM", "result": 10.3, "unit": "%"}, {"measurement": "viability, T/C", "setting": "second compound 30 pM, first compound 0.0949 µM", "result": 8.87, "unit": "%"}, {"measurement": "viability, T/C", "setting": "second compound 30 pM, first compound 0.3 µM", "result": 10.9, "unit": "%"}, {"measurement": "viability, T/C", "setting": "second compound 30 pM, first compound 0.949 µM", "result": 8.74, "unit": "%"}, {"measurement": "viability, T/C", "setting": "second compound 30 pM, first compound 3 µM", "result": 6.49, "unit": "%"}, {"measurement": "viability, T/C", "setting": "second compound 94.9 pM, first compound 0.00949 µM", "result": 8.85, "unit": "%"}, {"measurement": "viability, T/C", "setting": "second compound 94.9 pM, first compound 0.03 µM", "result": 7.16, "unit": "%"}, {"measurement": "viability, T/C", "setting": "second compound 94.9 pM, first compound 0.0949 µM", "result": 8.84, "unit": "%"}, {"measurement": "viability, T/C", "setting": "second compound 94.9 pM, first compound 0.3 µM", "result": 7.47, "unit": "%"}, {"measurement": "viability, T/C", "setting": "second compound 94.9 pM, first compound 0.949 µM", "result": 7.26, "unit": "%"}, {"measurement": "viability, T/C", "setting": "second compound 94.9 pM, first compound 3 µM", "result": 7.49, "unit": "%"}, {"measurement": "viability, T/C", "setting": "second compound 0.0003 µM, first compound 0.00949 µM", "result": 9.25, "unit": "%"}, {"measurement": "viability, T/C", "setting": "second compound 0.0003 µM, first compound 0.03 µM", "result": 8.07, "unit": "%"}, {"measurement": "viability, T/C", "setting": "second compound 0.0003 µM, first compound 0.0949 µM", "result": 9.38, "unit": "%"}, {"measurement": "viability, T/C", "setting": "second compound 0.0003 µM, first compound 0.3 µM", "result": 10.2, "unit": "%"}, {"measurement": "viability, T/C", "setting": "second compound 0.0003 µM, first compound 0.949 µM", "result": 7.28, "unit": "%"}, {"measurement": "viability, T/C", "setting": "second compound 0.0003 µM, first compound 3 µM", "result": 7.06, "unit": "%"}, {"measurement": "viability, T/C", "setting": "second compound 0.000949 µM, first compound 0.00949 µM", "result": 7.36, "unit": "%"}, {"measurement": "viability, T/C", "setting": "second compound 0.000949 µM, first compound 0.03 µM", "result": 7.49, "unit": "%"}, {"measurement": "viability, T/C", "setting": "second compound 0.000949 µM, first compound 0.0949 µM", "result": 7.37, "unit": "%"}, {"measurement": "viability, T/C", "setting": "second compound 0.000949 µM, first compound 0.3 µM", "result": 6.85, "unit": "%"}, {"measurement": "viability, T/C", "setting": "second compound 0.000949 µM, first compound 0.949 µM", "result": 5.96, "unit": "%"}, {"measurement": "viability, T/C", "setting": "second compound 0.000949 µM, first compound 3 µM", "result": 4.33, "unit": "%"}, {"measurement": "viability, T/C", "setting": "second compound 0.003 µM, first compound 0.00949 µM", "result": 0.57, "unit": "%"}, {"measurement": "viability, T/C", "setting": "second compound 0.003 µM, first compound 0.03 µM", "result": 0.36, "unit": "%"}, {"measurement": "viability, T/C", "setting": "second compound 0.003 µM, first compound 0.0949 µM", "result": 0.96, "unit": "%"}, {"measurement": "viability, T/C", "setting": "second compound 0.003 µM, first compound 0.3 µM", "result": 0.6, "unit": "%"}, {"measurement": "viability, T/C", "setting": "second compound 0.003 µM, first compound 0.949 µM", "result": 0.86, "unit": "%"}, {"measurement": "viability, T/C", "setting": "second compound 0.003 µM, first compound 3 µM", "result": 0.88, "unit": "%"}]}
